In patent US20250144067A1, “PERSONALIZED STARVATION THERAPY FOR CANCER” (Faeth Therapeutics, Inc., priority 2021, published 2025):
Counter-ions that a name gives are not always drawn.

How the values were obtained:
[1] = tested on: NCI-H292 lung cancer cells; assay: FDA drug screening, complete media vs cholesterol-free media without statin (TABLE 1); assay type: cell-based, human
[2] = tested on: NCI-H292 lung cancer cells; assay: FDA drug screening, complete media vs cholesterol-free media with simvastatin (TABLE 2); assay type: cell-based, human; conditions: for Cholesterol-free media + simvastatin (0.04 μM) / Complete Media: NCI-H292 cells
[3] = NCI-H292 cells, cholesterol-free media without statin
[4] = complete vs cholesterol-free media, greater than 0 enhanced anti-cancer activity, about 0 neutral, below 0 antagonists
[5] = FDA drug library screen, cholesterol-free media with simvastatin 0.04 μM
[6] = FDA drug library screen, complete media
[7] = complete media minus cholesterol-free media + simvastatin, >0 enhanced anti-cancer activity, about 0 neutral, <0 antagonist
[8] = Complete minus Cholesterol-free, >0 enhanced anti-cancer activity, about 0 neutral, <0 antagonist
[9] = NCI-H292 cells, cholesterol-free media without statin, FDA drug library screen
[10] = NCI-H292 cells, complete media, FDA drug library screen
[11] = cholesterol-free media with simvastatin 0.04 μM, cell growth value in FDA drug screen
[12] = complete media, cell growth value in FDA drug screen
[13] = Complete minus Cholesterol-free, greater than 0 enhanced anti-cancer activity, about 0 neutral, below 0 antagonists
[14] = NCI-H292 cells in complete media
[15] = complete media vs cholesterol-free media + simvastatin (0.04 μM), >0 enhanced anti-cancer activity, about 0 neutral, <0 antagonist
[16] = FDA library drug in cholesterol-free media with simvastatin 0.04 μM
[17] = FDA library drug in complete media
[18] = drug in cholesterol-free media with simvastatin 0.04 μM
[19] = NCI-H292 cells in cholesterol-free media without statin
[20] = Complete minus Cholesterol-free, […]
[21] = Complete minus Cholesterol-free, greater than 0 enhanced anti-cancer activity, about 0 neutral, below 0 antagonist
[22] = NCI-H292 cells, FDA drug library screen, cholesterol-free media without statin
[23] = NCI-H292 cells, FDA drug library screen, complete media
[24] = complete vs cholesterol-free media, >0 enhanced anti-cancer activity, about 0 neutral, <0 antagonist
[25] = cholesterol-free media with simvastatin 0.04 μM, FDA drug library screen (TABLE 2)
[26] = complete media, FDA drug library screen (TABLE 2)
[27] = complete media minus cholesterol-free media + simvastatin (0.04 μM), >0 enhanced anti-cancer activity, about 0 neutral, <0 antagonist
[28] = complete media minus cholesterol-free media + simvastatin, […]
[29] = cholesterol-free media with simvastatin 0.04 μM, […]

Compound: CN1CC[C@@H](NC(=O)Nc2ccc(C#N)cc2)C[C@@H]1c1nc2ccccc2[nH]1 [Glasdegib]
- Cholesterol-free [1, 3]: 1.398
- Complete ([1]; NCI-H292 cells, complete media): 0.9821
- Difference [1, 4]: −0.42
- Cholesterol-free media + simvastatin (0.04 μM) [2, 5]: 0.7992
- Complete Media [2, 6]: 0.9809
- Difference [2, 7]: 0.18

Compound: CC(C)(C)[C@@H]1NC(=O)O[C@@H]2CCC[C@H]2OC/C=C/C(F)(F)c2nc3ccccc3nc2O[C@@H]2C[C@@H](C(=O)N[C@]3(C(=O)NS(=O)(=O)C4(C)CC4)C[C@H]3C(F)F)N(C2)C1=O [Glecaprevir]
- Difference [1, 8]: −0.04
- Cholesterol-free [1, 9]: 0.8867
- Complete [1, 10]: 0.8478
- Cholesterol-free media + simvastatin (0.04 μM) [2, 11]: 1.021
- Complete Media [2, 12]: 1.126
- Difference [2, 7]: 0.11

Compound: COc1ccc(Cl)cc1C(=O)NCCc1ccc(S(=O)(=O)NC(=O)NC2CCCCC2)cc1 [Glibenclamide]
- Difference [1, 13]: −0.64
- Complete [1, 14]: 0.9798
- Cholesterol-free media + simvastatin (0.04 μM) [2, 5]: 1.112
- Complete Media [2, 6]: 0.9567
- Difference [2, 15]: −0.16

Compound: Cc1ccc(S(=O)(=O)NC(=O)NN2CC3CCCC3C2)cc1 (stereo not drawn) [Gliclazide]
- Difference [1, 8]: 0.04
- Cholesterol-free [1, 9]: 1.079
- Complete [1, 10]: 1.122
- Cholesterol-free media + simvastatin (0.04 μM) [2, 16]: 1.233
- Complete Media [2, 17]: 0.9583
- Difference [2, 15]: −0.28

Compound: CCC1=C(C)CN(C(=O)NCCc2ccc(S(=O)(=O)NC(=O)N[C@H]3CC[C@H](C)CC3)cc2)C1=O [Glimepiride]
- Cholesterol-free [1, 3]: 1.246
- Complete ([1]; NCI-H292 cells, complete media): 0.8316
- Difference [1, 4]: −0.41
- Cholesterol-free media + simvastatin (0.04 μM) [2, 18]: 0.9904
- Complete Media ([2]; drug in complete media): 0.7847
- Difference [2, 15]: −0.21

Compound: Cc1cnc(C(=O)NCCc2ccc(S(=O)(=O)NC(=O)NC3CCCCC3)cc2)cn1 [Glipizide]
- Cholesterol-free [1, 3]: 1.844
- Complete ([1]; NCI-H292 cells, complete media): 1.46
- Difference [1, 4]: −0.38
- Cholesterol-free media + simvastatin (0.04 μM) [2, 18]: 1.42
- Complete Media ([2]; drug in complete media): 1.2
- Difference [2, 15]: −0.22

Compound: COc1ccc2c(c1)C(=O)N(CCc1ccc(S(=O)(=O)NC(=O)NC3CCCCC3)cc1)C(=O)C2(C)C [Gliquidone]
- Difference [1, 13]: −0.68
- Cholesterol-free [1, 19]: 1.724
- Complete [1, 14]: 1.039
- Cholesterol-free media + simvastatin (0.04 μM) [2, 16]: 1.335
- Complete Media [2, 17]: 1.002
- Difference [2, 15]: −0.33

Compound: O=C([O-])[C@H](O)[C@@H](O)[C@H](O)[C@H](O)CO.[Na+] [Gluconate (sodium)]
- Difference [1, 20]: −0.62
- Cholesterol-free [1, 19]: 1.575
- Complete [1, 14]: 0.95
- Cholesterol-free media + simvastatin (0.04 μM) [2, 16]: 1.406
- Complete Media [2, 17]: 0.9873
- Difference ([2]; complete media vs cholesterol-free media + simvastatin (0.04 μM), […]): −0.42

Compound: Cl.N[C@H]1C(O)O[C@H](CO)[C@@H](O)[C@@H]1O (stereo partly drawn) [Glucosamine (hydrochloride)]
- Difference [1, 21]: −0.17
- Cholesterol-free [1, 22]: 1.116
- Complete [1, 23]: 0.9464
- Cholesterol-free media + simvastatin (0.04 μM) [2, 5]: 0.9525
- Complete Media [2, 6]: 1.178
- Difference [2, 7]: 0.23

Compound: N[C@H]1C(O)O[C@H](CO)[C@@H](O)[C@@H]1O (stereo partly drawn) [Glucosamine]
- Cholesterol-free [1, 3]: 1.17
- Complete ([1]; NCI-H292 cells, complete media): 0.7725
- Difference [1, 4]: −0.40
- Cholesterol-free media + simvastatin (0.04 μM) [2, 16]: 1.916
- Difference [2, 15]: −0.77

Compound: O=C(CCCc1ccccc1)OCC(COC(=O)CCCc1ccccc1)OC(=O)CCCc1ccccc1 [Glycerol phenylbutyrate]
- Difference [1, 21]: −0.17
- Cholesterol-free [1, 22]: 1.054
- Complete [1, 23]: 0.8817
- Cholesterol-free media + simvastatin (0.04 μM) [2, 16]: 1.737
- Complete Media [2, 17]: 1.34
- Difference [2, 15]: −0.40

Compound: OCC(O)CO [Glycerol]
- Cholesterol-free [1, 9]: 0.984
- Complete [1, 10]: 1.096
- Difference [1, 24]: 0.11
- Cholesterol-free media + simvastatin (0.04 μM) [2, 25]: 1.066
- Complete Media [2, 26]: 1.039
- Difference [2, 27]: −0.03

Compound: NCC(=O)O [Glycine]
- Difference [1, 13]: −0.56
- Cholesterol-free [1, 19]: 1.569
- Complete [1, 14]: 1.011
- Cholesterol-free media + simvastatin (0.04 μM) [2, 16]: 1.249
- Complete Media [2, 17]: 0.983
- Difference [2, 15]: −0.27

Compound: C[N+]1(C)CCC(OC(=O)C(O)(c2ccccc2)C2CCCC2)C1 (stereo not drawn) [Glycopyrrolate]
- Difference [1, 8]: 0.02
- Cholesterol-free [1, 9]: 0.8111
- Complete [1, 10]: 0.8296
- Cholesterol-free media + simvastatin (0.04 μM) [2, 5]: 2.314
- Difference [2, 27]: −1.08

Compound: CC1(C)[C@@H](O[C@H]2O[C@H](C(=O)O)[C@@H](O)[C@H](O)[C@H]2O[C@@H]2O[C@H](C(=O)O)[C@@H](O)[C@H](O)[C@H]2O)CC[C@]2(C)[C@H]3C(=O)C=C4[C@@H]5C[C@@](C)(C(=O)O)CC[C@]5(C)CC[C@@]4(C)[C@]3(C)CC[C@@H]12 [Glycyrrhizic acid]
- Difference [1, 21]: −0.08
- Cholesterol-free [1, 22]: 1.146
- Complete [1, 23]: 1.061
- Cholesterol-free media + simvastatin (0.04 μM) [2, 5]: 1.042
- Complete Media [2, 6]: 0.907
- Difference [2, 15]: −0.13

Compound: CN1C2CCCC1CC(NC(=O)c1nn(C)c3ccccc13)C2 (stereo not drawn) [Granisetron (Hydrochloride)]
- Difference [1, 8]: −0.26
- Cholesterol-free [1, 3]: 1.123
- Complete ([1]; NCI-H292 cells, complete media): 0.8639
- Cholesterol-free media + simvastatin (0.04 μM) [2, 25]: 0.8994
- Complete Media [2, 26]: 0.8536
- Difference [2, 27]: −0.05

Compound: C=C[C@@H]1C[C@]1(NC(=O)[C@@H]1C[C@@H]2CN1C(=O)[C@H](C(C)(C)C)NC(=O)O[C@@H]1C[C@H]1CCCCCc1nc3ccc(OC)cc3nc1O2)C(=O)[N-]S(=O)(=O)C1CC1.[K+] [Grazoprevir potassium salt]
- Difference [1, 20]: −0.06
- Cholesterol-free [1, 9]: 1.089
- Complete [1, 10]: 1.03
- Cholesterol-free media + simvastatin (0.04 μM) [2, 5]: 1.46
- Complete Media [2, 6]: 1.827
- Difference [2, 28]: 0.37

Compound: C=C[C@@H]1C[C@]1(NC(=O)[C@@H]1C[C@@H]2CN1C(=O)[C@H](C(C)(C)C)NC(=O)O[C@@H]1C[C@H]1CCCCCc1nc3ccc(OC)cc3nc1O2)C(=O)NS(=O)(=O)C1CC1.O [Grazoprevir]
- Difference [1, 20]: −0.09
- Cholesterol-free [1, 22]: 1.057
- Complete [1, 23]: 0.9626
- Cholesterol-free media + simvastatin (0.04 μM) [2, 29]: 0.9215
- Complete Media ([2]; complete media, […]): 0.9383
- Difference [2, 28]: 0.02

Compound: COC1=CC(=O)C[C@@H](C)[C@]12Oc1c(Cl)c(OC)cc(OC)c1C2=O [Griseofulvin]
- Difference [1, 13]: −0.63
- Cholesterol-free [1, 19]: 1.326
- Complete [1, 14]: 0.6963
- Cholesterol-free media + simvastatin (0.04 μM) [2, 18]: 1.385
- Complete Media ([2]; drug in complete media): 1.224
- Difference [2, 15]: −0.16

Compound: COc1ccccc1OC(=O)c1ccccc1OC(C)=O [Guacetisal]
- Difference [1, 20]: −0.09
- Cholesterol-free [1, 22]: 0.837
- Complete [1, 23]: 0.7434
- Cholesterol-free media + simvastatin (0.04 μM) [2, 29]: 1.34
- Complete Media ([2]; complete media, […]): 1.4
- Difference [2, 28]: 0.06

Compound: COc1ccccc1O [Guaiacol]
- Difference [1, 8]: −0.02
- Cholesterol-free [1, 9]: 1.281
- Complete [1, 10]: 1.265
- Cholesterol-free media + simvastatin (0.04 μM) [2, 16]: 2.295
- Complete Media [2, 17]: 1.473
- Difference [2, 15]: −0.82

Compound: Cc1ccc(C(C)C)cc2c(C)ccc1-2 [Guaiazulene]
- Difference [1, 8]: −0.21
- Cholesterol-free [1, 3]: 1.231
- Complete ([1]; NCI-H292 cells, complete media): 1.025
- Cholesterol-free media + simvastatin (0.04 μM) [2, 18]: 1.916
- Complete Media ([2]; drug in complete media): 1.674
- Difference [2, 15]: −0.24

Compound: COc1ccccc1OCC(O)CO (stereo not drawn) [Guaifenesin]
- Cholesterol-free [1, 3]: 1.204
- Complete ([1]; NCI-H292 cells, complete media): 0.8523
- Difference [1, 4]: −0.35
- Cholesterol-free media + simvastatin (0.04 μM) [2, 5]: 1.078
- Complete Media [2, 6]: 1.326
- Difference [2, 7]: 0.25

Compound: N=C(N)NC(=O)Cc1c(Cl)cccc1Cl [Guanfacine (hydrochloride)]
- Cholesterol-free [1, 9]: 0.9809
- Complete [1, 10]: 1.601
- Difference [1, 24]: 0.62
- Cholesterol-free media + simvastatin (0.04 μM) [2, 5]: 1.401
- Complete Media [2, 6]: 1.965
- Difference [2, 7]: 0.56

Compound: N=C(N)N [Guanidine (hydrochloride)]
- Cholesterol-free [1, 9]: 0.9919
- Complete [1, 10]: 1.237
- Difference [1, 24]: 0.24
- Cholesterol-free media + simvastatin (0.04 μM) [2, 18]: 1.136
- Complete Media ([2]; drug in complete media): 0.9286
- Difference [2, 15]: −0.21

Compound: CC1(C)O[C@@H]2C[C@H]3[C@@H]4CCC5=CC(=O)CC[C@]5(C)[C@@]4(F)[C@@H](O)C[C@]3(C)[C@]2(C(=O)CCl)O1 [Halcinonide]
- Difference [1, 21]: −0.18
- Cholesterol-free [1, 22]: 0.895
- Complete [1, 23]: 0.7117
- Cholesterol-free media + simvastatin (0.04 μM) [2, 11]: 0.5751
- Complete Media [2, 12]: 0.6822
- Difference [2, 7]: 0.11

Compound: CCC(=O)O[C@]1(C(=O)CCl)[C@@H](C)C[C@H]2[C@@H]3C[C@H](F)C4=CC(=O)C=C[C@]4(C)[C@@]3(F)[C@@H](O)C[C@@]21C [Halobetasol (propionate)]
- Difference [1, 21]: −0.18
- Cholesterol-free [1, 22]: 0.7462
- Complete [1, 23]: 0.5641
- Cholesterol-free media + simvastatin (0.04 μM) [2, 25]: 0.5775
- Complete Media [2, 26]: 0.585
- Difference [2, 27]: 0.01
